Bounds are passed on as bounds.

Assay in all cases: KAM-matrix competition in K562 lysate
What all share (type): binding

The target of one test is T1, MAP2K5 (Homo sapiens, UniProt Q13163).
T1 construct: endogenous in cells; host or cells: K562
T1 sequence (Q13163 1-448): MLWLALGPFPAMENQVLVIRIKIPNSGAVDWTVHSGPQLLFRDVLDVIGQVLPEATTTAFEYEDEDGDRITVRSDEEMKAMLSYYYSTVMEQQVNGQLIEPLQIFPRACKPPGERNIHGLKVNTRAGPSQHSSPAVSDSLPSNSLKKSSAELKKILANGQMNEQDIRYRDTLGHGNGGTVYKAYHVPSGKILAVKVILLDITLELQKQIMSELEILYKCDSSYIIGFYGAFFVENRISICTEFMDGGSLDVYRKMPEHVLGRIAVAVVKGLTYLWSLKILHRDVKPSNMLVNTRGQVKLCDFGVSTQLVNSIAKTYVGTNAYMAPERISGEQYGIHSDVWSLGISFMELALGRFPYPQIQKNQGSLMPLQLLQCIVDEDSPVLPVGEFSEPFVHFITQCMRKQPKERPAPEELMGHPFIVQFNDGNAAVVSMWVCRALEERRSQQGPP
The conditions noted are these: relative to 0 uM KAM = 0. The procedure:
Supplement 12953_2017_125_MOESM1_ESM.zip/MS_Supp Info.xlsx, sheet "KAM" | column: 10 uM KAM; 1 uM KAM; 0.1 uM KAM; 0.01 uM KAM

The next test deals with ATM (Homo sapiens, UniProt Q13315). Further details: endogenous in cells; host or cells: K562. On the procedure:
(§1) Supplement 12953_2017_125_MOESM1_ESM.zip/MS_Supp Info.xlsx, sheet "KAM" | column: 10 uM KAM; 1 uM KAM; 0.1 uM KAM; 0.01 uM KAM; 0.001 uM KAM; RB50

In the next test the target is T2, SCYL1 (Homo sapiens, UniProt Q96KG9).
T2 sequence (Q96KG9 1-808): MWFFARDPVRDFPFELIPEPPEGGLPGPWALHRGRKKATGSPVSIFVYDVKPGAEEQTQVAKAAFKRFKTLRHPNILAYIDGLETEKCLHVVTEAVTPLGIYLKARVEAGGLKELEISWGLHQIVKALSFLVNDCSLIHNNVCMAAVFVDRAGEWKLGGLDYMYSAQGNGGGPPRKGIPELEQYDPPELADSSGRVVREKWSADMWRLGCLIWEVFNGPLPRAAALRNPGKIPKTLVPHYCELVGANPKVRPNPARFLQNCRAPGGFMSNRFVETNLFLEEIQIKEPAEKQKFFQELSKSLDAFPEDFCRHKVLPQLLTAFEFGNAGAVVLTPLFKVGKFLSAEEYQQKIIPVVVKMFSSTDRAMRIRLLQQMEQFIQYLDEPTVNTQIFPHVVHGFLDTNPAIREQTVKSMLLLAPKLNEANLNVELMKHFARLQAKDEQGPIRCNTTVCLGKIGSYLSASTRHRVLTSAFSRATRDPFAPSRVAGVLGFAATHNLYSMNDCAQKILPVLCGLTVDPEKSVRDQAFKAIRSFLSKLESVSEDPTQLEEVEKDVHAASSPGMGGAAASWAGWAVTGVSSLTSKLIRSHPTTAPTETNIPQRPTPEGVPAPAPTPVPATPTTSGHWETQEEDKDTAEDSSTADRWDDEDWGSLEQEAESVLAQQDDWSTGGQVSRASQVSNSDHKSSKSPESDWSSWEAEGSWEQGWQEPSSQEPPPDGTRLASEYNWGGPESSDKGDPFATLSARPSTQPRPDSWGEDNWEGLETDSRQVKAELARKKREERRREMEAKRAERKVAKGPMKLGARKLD
Further details: endogenous in cells; host or cells: K562. On the procedure:
as §1

A further test concerns the target T3, CDK6 (Homo sapiens, UniProt Q00534).
T3 construct: endogenous in cells; host or cells: K562
The settings on record: relative to 0 uM KAM = 0. The procedure:
Supplement 12953_2017_125_MOESM1_ESM.zip/MS_Supp Info.xlsx, sheet "KAM" | column: 10 uM KAM; 1 uM KAM; 0.1 uM KAM; 0.001 uM KAM

The mark [1] stands for this setting: KAM 0.001-10 uM, read-out: RB50 (the source's name).

T3 sequence (Q00534 whole entry): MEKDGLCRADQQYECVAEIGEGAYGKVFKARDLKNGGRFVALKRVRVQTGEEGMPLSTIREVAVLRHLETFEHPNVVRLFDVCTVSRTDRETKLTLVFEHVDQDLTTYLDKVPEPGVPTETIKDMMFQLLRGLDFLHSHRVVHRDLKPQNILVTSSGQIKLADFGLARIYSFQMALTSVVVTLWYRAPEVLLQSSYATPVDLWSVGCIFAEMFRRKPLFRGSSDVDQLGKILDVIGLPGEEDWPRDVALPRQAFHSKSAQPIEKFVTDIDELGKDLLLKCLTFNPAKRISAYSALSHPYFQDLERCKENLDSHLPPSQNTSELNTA
Chain of ATM (Q13315 whole entry): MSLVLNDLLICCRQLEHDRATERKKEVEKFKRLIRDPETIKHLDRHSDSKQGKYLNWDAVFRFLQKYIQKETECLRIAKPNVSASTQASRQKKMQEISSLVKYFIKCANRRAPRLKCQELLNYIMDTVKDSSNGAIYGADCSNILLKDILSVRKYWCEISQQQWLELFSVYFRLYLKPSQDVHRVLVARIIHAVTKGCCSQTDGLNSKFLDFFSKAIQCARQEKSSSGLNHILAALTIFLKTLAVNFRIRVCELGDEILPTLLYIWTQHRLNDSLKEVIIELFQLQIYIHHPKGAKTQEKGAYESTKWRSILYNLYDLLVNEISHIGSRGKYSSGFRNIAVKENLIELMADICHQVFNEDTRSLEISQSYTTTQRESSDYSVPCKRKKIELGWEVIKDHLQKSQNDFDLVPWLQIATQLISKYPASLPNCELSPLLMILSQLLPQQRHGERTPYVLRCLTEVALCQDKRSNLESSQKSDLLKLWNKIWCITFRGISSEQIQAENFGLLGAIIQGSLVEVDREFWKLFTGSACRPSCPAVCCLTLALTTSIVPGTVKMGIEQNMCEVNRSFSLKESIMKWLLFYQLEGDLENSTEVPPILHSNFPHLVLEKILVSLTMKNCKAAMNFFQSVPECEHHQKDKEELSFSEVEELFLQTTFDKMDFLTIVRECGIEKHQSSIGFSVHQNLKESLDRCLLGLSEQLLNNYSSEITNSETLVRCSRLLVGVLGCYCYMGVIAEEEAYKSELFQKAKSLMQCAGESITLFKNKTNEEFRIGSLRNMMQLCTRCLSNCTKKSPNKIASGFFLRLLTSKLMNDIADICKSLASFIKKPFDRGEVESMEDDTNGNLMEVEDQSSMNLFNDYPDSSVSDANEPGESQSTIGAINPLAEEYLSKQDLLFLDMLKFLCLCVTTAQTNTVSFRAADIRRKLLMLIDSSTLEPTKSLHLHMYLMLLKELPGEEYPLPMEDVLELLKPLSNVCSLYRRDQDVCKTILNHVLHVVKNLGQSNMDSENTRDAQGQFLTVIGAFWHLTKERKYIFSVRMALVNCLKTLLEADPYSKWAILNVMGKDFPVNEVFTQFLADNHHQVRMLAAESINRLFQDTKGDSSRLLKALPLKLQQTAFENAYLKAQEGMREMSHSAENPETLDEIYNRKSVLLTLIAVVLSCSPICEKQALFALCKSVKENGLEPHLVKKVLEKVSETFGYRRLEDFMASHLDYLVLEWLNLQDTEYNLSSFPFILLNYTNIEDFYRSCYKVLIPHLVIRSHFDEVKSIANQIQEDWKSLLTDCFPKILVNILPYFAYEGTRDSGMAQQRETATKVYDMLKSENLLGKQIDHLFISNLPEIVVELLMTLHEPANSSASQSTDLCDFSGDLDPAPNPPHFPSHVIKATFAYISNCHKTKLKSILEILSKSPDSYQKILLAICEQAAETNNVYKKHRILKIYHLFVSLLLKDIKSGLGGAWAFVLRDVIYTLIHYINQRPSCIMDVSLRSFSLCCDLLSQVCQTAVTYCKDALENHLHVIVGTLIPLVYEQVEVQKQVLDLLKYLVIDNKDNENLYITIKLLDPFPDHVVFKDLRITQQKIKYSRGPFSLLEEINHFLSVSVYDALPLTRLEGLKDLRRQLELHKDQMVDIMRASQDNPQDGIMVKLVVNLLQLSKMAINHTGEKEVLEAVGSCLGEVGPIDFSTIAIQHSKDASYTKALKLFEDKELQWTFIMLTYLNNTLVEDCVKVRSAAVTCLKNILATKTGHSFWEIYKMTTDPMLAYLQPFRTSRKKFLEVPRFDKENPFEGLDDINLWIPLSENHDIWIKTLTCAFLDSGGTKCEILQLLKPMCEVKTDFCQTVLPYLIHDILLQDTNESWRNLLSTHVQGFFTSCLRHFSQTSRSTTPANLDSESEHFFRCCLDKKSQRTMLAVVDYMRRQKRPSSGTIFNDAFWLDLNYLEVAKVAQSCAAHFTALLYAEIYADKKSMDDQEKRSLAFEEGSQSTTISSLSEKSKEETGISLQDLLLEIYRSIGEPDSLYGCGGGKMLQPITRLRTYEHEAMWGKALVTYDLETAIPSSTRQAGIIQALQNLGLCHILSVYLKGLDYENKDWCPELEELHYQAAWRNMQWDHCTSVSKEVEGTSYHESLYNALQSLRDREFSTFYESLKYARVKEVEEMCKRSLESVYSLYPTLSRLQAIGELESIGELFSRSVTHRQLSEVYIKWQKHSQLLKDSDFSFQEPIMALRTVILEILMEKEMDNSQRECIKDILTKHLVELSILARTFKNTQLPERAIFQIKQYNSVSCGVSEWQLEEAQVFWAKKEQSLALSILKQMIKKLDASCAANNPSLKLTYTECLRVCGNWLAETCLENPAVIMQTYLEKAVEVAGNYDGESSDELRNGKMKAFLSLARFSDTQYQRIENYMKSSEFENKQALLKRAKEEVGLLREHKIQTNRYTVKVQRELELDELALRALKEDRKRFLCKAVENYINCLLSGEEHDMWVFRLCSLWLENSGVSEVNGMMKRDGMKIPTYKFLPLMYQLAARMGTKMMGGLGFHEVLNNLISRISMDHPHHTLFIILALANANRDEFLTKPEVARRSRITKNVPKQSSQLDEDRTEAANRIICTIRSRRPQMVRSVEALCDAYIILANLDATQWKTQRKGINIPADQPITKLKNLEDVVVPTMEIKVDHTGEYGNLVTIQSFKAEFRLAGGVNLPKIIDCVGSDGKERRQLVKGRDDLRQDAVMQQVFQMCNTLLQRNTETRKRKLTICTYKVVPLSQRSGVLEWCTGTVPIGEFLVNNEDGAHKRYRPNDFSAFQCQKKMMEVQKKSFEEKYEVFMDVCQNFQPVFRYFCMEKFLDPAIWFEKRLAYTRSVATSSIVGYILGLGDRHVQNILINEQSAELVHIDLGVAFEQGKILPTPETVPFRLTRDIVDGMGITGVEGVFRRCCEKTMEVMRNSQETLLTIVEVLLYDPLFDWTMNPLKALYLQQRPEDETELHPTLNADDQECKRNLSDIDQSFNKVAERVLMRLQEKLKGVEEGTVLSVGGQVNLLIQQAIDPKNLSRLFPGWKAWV

Turning to `N#CCc1ccc(Nc2nc(NCCCN)cc(Nc3cc(C4CC4)[nH]n3)n2)cc1` [KAM], the “0.01 uM KAM” value at MAP2K5 is 0.01409; at ATM (relative to 0 uM KAM = 0) it was -0.02165; on SCYL1 (relative to 0 uM KAM = 0) it was 0.01732. The “0.1 uM KAM” value is recorded as -0.1362 on MAP2K5, -0.03764 on ATM (relative to 0 uM KAM = 0), 0.09163 at SCYL1 (relative to 0 uM KAM = 0) and -0.05531 at CDK6. In addition, the “1 uM KAM” value is reported as -0.4773 on MAP2K5, -0.07001 at ATM (relative to 0 uM KAM = 0), 0.1255 at SCYL1 (relative to 0 uM KAM = 0) and -0.08871 on CDK6. Also, the “10 uM KAM” value on MAP2K5 was -0.5729; at ATM (relative to 0 uM KAM = 0), 0.01755; on SCYL1 (relative to 0 uM KAM = 0), 0.1065; on CDK6, -0.05328. In addition, the IC50 on ATM (setting [1]) and on SCYL1 (setting [1]) was greater than 10 µM in each case. Moreover, the “0.001 uM KAM” value on ATM (relative to 0 uM KAM = 0) was -0.06745; on SCYL1 (relative to 0 uM KAM = 0) it was 0.01527; at CDK6, 0.01418.

Source of the values: publication PMC5513037, “Examining the influence of specificity ligands and ATP-competitive ligands on the overall effectiveness of bivalent kinase inhibitors” (Proteome Science, 2017).
